From patent US4546098A, “Estrogen synthesis inhibitors” (The Rockefeller University, priority 1984, dated 1985) come the findings set out here.

This assay concerns the target T1, aromatase (Homo sapiens, UniProt P11511).
T1 construct: incubated with 5 ml of a placental microsomes; from tissue; host or cells: placental microsomes
T1 sequence (P11511 1-503): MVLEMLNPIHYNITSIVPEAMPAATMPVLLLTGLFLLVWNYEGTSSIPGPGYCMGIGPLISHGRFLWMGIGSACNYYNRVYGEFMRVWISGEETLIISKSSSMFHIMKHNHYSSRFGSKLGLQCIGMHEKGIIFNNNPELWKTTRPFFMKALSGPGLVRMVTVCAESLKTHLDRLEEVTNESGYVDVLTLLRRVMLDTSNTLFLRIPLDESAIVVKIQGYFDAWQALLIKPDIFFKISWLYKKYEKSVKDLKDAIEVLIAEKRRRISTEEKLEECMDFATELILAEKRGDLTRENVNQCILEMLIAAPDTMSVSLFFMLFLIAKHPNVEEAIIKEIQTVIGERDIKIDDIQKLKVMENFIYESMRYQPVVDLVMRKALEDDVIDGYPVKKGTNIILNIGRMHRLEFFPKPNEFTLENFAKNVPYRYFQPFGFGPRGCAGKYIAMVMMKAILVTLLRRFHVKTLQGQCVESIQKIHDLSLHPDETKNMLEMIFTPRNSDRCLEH
The experiment in a line: Inhibition of formic acid formation from [19,19,19-3H]androst-4-ene-3,17-dione by placental microsomes. The assay is classed as biochemical. Conditions: placental microsomes 1 mg/ml (5 ml), pH 7.2, 37° C., 30 minutes; inhibitor 4 n mole, androstenedione 4 n mole; NADPH. How it is done:
A mixture of [19,19,19-^3 H]androst-4-ene-3,17-dione diluted with cold androstenedione (2.8×10^6 dpm, 4 n mole) and an inhibitor (4 n mole) in ethanol (50 μl) was incubated with 5 ml of a placental microsomes (1 mg/ml of 0.05M tris-HCl, pH 7.2) in the presence of NADPH (5 mg), glucose-6-phosphate (2.5 mg), and glucose-6-phosphate dehydrogenase (3.1 units). The incubations were carried out at 37° C. for 30 minutes in air. A control incubation was carried out as above except that the inhibitor was excluded. The incubation mixture (1 ml) was mixed with 1M phosphoric acid (1 ml), flash frozen and lyophilized. Radioactivity in 0.5 ml of the distilled component was measured (A). And 1.2 ml of the distilled component was mixed with 0.3 ml of 1N sodium hydroxide, flash frozen, and lyophilized. Radioactivity in 0.5 ml of the distilled water was measured (B).
`C=C1C=C2CC[C@@H]3[C@H](CC[C@]4(C)[C@@H](O)CC[C@@H]34)[C@@]2(CO)CC1` [Cmpd 5, 3-methylene-androst-4-ene-17β,19-diol]: the “% Inhibition of formic acid formation” value worked out at 55%.

On to `C=C1C=C2CC[C@H]3[C@@H]4CC[C@H](O)[C@@]4(C)CC[C@@H]3[C@@]2(C)CC1` [Cmpd. 1, 3-methylene-androst-4-ene-17β-ol], for which the “% Inhibition of formic acid formation” value was 43%. With `C=C1C=C2CC[C@@H]3[C@H](CC[C@]4(C)C(=O)CC[C@@H]34)[C@@]2(C)CC1` [Cmpd. 3, 3-methylene-androst-4-ene-17-one] the figure was 86%; with `C=C1C=C2CC[C@@H]3[C@H](CC[C@]4(C)C(=O)CC[C@@H]34)[C@@]2(CO)CC1` [Cmpd. 9, 3-methylene-androst-4-ene-19-ol-17-one], 90%; with `C=C1C=C2CC[C@@H]3[C@H](CC[C@]4(C)C(=O)CC[C@@H]34)[C@@]2(C=O)CC1` [Cmpd. 53, 3-Methylene-androst-4-ene-17,19-dione], 70%.
